From ChEMBL document CHEMBL4483862, “Open-source discovery of chemical leads for next-generation chemoprotective antimalarials” (2018)

Test system: Plasmodium berghei
Experiment: Luciferase/luciferin-expressing antifolate-resistant parasites were used to infect a culture of HepG2 cells that were pre-incubated with compounds. Infected hepatocytes emit light due to the luciferase reaction. Assay results are presented as the percent inhibition of light emission compared to control. […]
Format: functional
Conditions: sporozoite; for IC90: read-out: LUCIFERASE INFECTION ASSAY - IC90

Row | SMILES | IC90 [µM] | also measured
1 | CCc1cc(C(=O)Nc2ncccc2O)sc1C | > 10 | IC50 (FFLUC_HILL_SLOPE 0.955, FFLUC_R_SQUARED 0.833, PBLUC_HILL_SLOPE 2.67, PBLUC_R_SQUARED 0.448, read-out: LUCIFERASE INFECTION ASSAY - IC50): 4.95 µM
2 | Cc1ccc(NC(=O)Cc2csc(NC(=O)C3CC3)n2)cc1Cl | > 10 | IC50 (FFLUC_HILL_SLOPE 0.917, FFLUC_R_SQUARED 0.0768, HEPG2TOX_HILL_SLOPE 0.677, HEPG2TOX_R_SQUARED 0.444, PBLUC_HILL_SLOPE 1.82, PBLUC_R_SQUARED 0.301, read-out: LUCIFERASE INFECTION ASSAY - IC50): > 10 µM
3 | CN(/N=C/c1cc(Cl)cc(Cl)c1O)c1ccc([N+](=O)[O-])cn1 | > 9.67 | IC50 (FFLUC_HILL_SLOPE 1.05, FFLUC_R_SQUARED 0.5, read-out: LUCIFERASE INFECTION ASSAY - IC50): > 9.67 µM
4 | CC1CCc2c(sc3c2C(=O)NC(/C(Br)=C/c2ccccc2)N3)C1 (stereo not given) | 3.94 | IC50 (FFLUC_HILL_SLOPE 0.906, FFLUC_R_SQUARED 0.617, HEPG2TOX_HILL_SLOPE 7.13, HEPG2TOX_R_SQUARED 0.573, PBLUC_HILL_SLOPE 13.5, PBLUC_R_SQUARED 0.659, read-out: LUCIFERASE INFECTION ASSAY - IC50): 3.35 µM
5 | CC(C)(c1ccc(Oc2ccc(NC(=O)C3CC3(C)C)cc2)cc1)c1ccc(Oc2ccc(NC(=O)C3CC3(C)C)cc2)cc1 (stereo not given) | > 5.47 | IC50 (FFLUC_HILL_SLOPE 0.986, FFLUC_R_SQUARED 0.483, PBLUC_HILL_SLOPE 0.525, PBLUC_R_SQUARED 0.295, read-out: LUCIFERASE INFECTION ASSAY - IC50): 2.36 µM
6 | Cc1cc(NC(C)C)n2ncc(-c3ccc(F)cc3)c2n1 | 5.57 | IC50 (FFLUC_HILL_SLOPE 0.941, FFLUC_R_SQUARED 0.965, HEPG2TOX_HILL_SLOPE 0.182, HEPG2TOX_R_SQUARED 0.624, PBLUC_HILL_SLOPE 0.618, PBLUC_R_SQUARED 0.897, read-out: LUCIFERASE INFECTION ASSAY - IC50): 0.16 µM
7 | Oc1cccc(-c2cnc3cnc(-c4ccc(CNc5ccccc5)cc4)cn23)c1 | 2.92 | IC50 (FFLUC_HILL_SLOPE 1.01, FFLUC_R_SQUARED 0.213, PBLUC_HILL_SLOPE 39.2, PBLUC_R_SQUARED 0.71, read-out: LUCIFERASE INFECTION ASSAY - IC50): 2.76 µM
8 | CCCn1c(C)cc(C(=O)COC(=O)C2=COCCO2)c1C | > 10 | IC50 (FFLUC_HILL_SLOPE 0.919, FFLUC_R_SQUARED 0.757, PBLUC_HILL_SLOPE 0.614, PBLUC_R_SQUARED 0.12, read-out: LUCIFERASE INFECTION ASSAY - IC50): 0.839 µM
9 | Cc1ccc2nc(-c3ccc(N(C)C)cc3)[nH]c2c1 | 5.96 | IC50 (FFLUC_HILL_SLOPE 0.944, FFLUC_R_SQUARED 0.925, PBLUC_HILL_SLOPE 0.907, PBLUC_R_SQUARED 0.785, read-out: LUCIFERASE INFECTION ASSAY - IC50): 0.53 µM
10 | Cc1nc2ccccc2nc1SCC(=O)c1ccc(NS(C)(=O)=O)cc1 | > 10 | IC50 (FFLUC_HILL_SLOPE 1.05, FFLUC_R_SQUARED 0.177, HEPG2TOX_HILL_SLOPE 1.12, HEPG2TOX_R_SQUARED 0.682, read-out: LUCIFERASE INFECTION ASSAY - IC50): > 10 µM
11 | Cc1cc(C)cc(Nc2nc(=O)c(Cc3ccc(Cl)cc3)n[nH]2)c1 | 8.45 | IC50 (FFLUC_HILL_SLOPE 1.04, FFLUC_R_SQUARED 0.238, PBLUC_HILL_SLOPE 2.61, PBLUC_R_SQUARED 0.421, read-out: LUCIFERASE INFECTION ASSAY - IC50): 3.64 µM
12 | CCCCCN1C(=O)/C(=N\n2c(-c3ccc(Cl)c(Cl)c3)cs/c2=N\c2cccc(C)c2C)c2ccccc21 | > 10 | IC50 (FFLUC_HILL_SLOPE 0.963, FFLUC_R_SQUARED 0.82, HEPG2TOX_HILL_SLOPE 0.0725, HEPG2TOX_R_SQUARED 0.0443, PBLUC_HILL_SLOPE 3.87, PBLUC_R_SQUARED 0.467, read-out: LUCIFERASE INFECTION ASSAY - IC50): 6.02 µM
13 | Cn1c(NCC2CC2)nc2cnc(-c3ccc4ccccc4c3)cc21 | 2.07 | IC50 (FFLUC_HILL_SLOPE 1.05, FFLUC_R_SQUARED 0.583, HEPG2TOX_HILL_SLOPE 31.1, HEPG2TOX_R_SQUARED 0.421, PBLUC_HILL_SLOPE 0.605, PBLUC_R_SQUARED 0.735, read-out: LUCIFERASE INFECTION ASSAY - IC50): 0.0548 µM
14 | Cc1sc2ncn(/N=C/c3ccc(N(c4ccccc4)c4ccccc4)cc3)c(=O)c2c1C | 4.02 | IC50 (FFLUC_HILL_SLOPE 0.996, FFLUC_R_SQUARED 0.715, HEPG2TOX_HILL_SLOPE 1.1, HEPG2TOX_R_SQUARED 0.992, PBLUC_HILL_SLOPE 2.81, PBLUC_R_SQUARED 0.433, read-out: LUCIFERASE INFECTION ASSAY - IC50): 1.84 µM
15 | CCN(CC)S(=O)(=O)c1cccc(NC(=O)c2sc(Nc3ccc(C)cc3C)c(C(=O)NC(C)COC)c2N)c1 (stereo not given) | > 10 | IC50 (FFLUC_HILL_SLOPE 0.973, FFLUC_R_SQUARED 0.376, read-out: LUCIFERASE INFECTION ASSAY - IC50): > 10 µM
16 | OC1CCN(c2nn3cc(-c4ccccc4)nc3s2)CC1 | 0.954 | IC50 (FFLUC_HILL_SLOPE 1.04, FFLUC_R_SQUARED 0.865, PBLUC_HILL_SLOPE 0.617, PBLUC_R_SQUARED 0.864, read-out: LUCIFERASE INFECTION ASSAY - IC50): 0.0272 µM
17 | Cc1ccccc1-n1c(SCc2nc3ccccc3c(=O)n2CC#N)nnc1-c1ccc(C(C)(C)C)cc1 | > 10 | IC50 (FFLUC_HILL_SLOPE 0.956, FFLUC_R_SQUARED 0.529, read-out: LUCIFERASE INFECTION ASSAY - IC50): > 10 µM
18 | O=C(Nc1ccc(N2CCCC2)cn1)C1CC=CCC1 (stereo not given) | 0.636 | IC50 (FFLUC_HILL_SLOPE 1.03, FFLUC_R_SQUARED 0.671, HEPG2TOX_HILL_SLOPE 1.03, HEPG2TOX_R_SQUARED 0.932, PBLUC_HILL_SLOPE 1.27, PBLUC_R_SQUARED 0.726, read-out: LUCIFERASE INFECTION ASSAY - IC50): 0.112 µM
19 | O=C(Nc1nc2ccc(OC(F)(F)F)cc2s1)c1cnccn1 | 3.41 | IC50 (FFLUC_HILL_SLOPE 1.04, FFLUC_R_SQUARED 0.266, PBLUC_HILL_SLOPE 101, PBLUC_R_SQUARED 0.2, read-out: LUCIFERASE INFECTION ASSAY - IC50): 3.33 µM
20 | O=C1C(=O)N(Cc2ccccc2F)c2c1cccc2C(F)(F)F | > 10.2 | IC50 (FFLUC_HILL_SLOPE 1.03, FFLUC_R_SQUARED 0.0461, HEPG2TOX_HILL_SLOPE 15.2, HEPG2TOX_R_SQUARED 0.946, PBLUC_HILL_SLOPE 1.65, PBLUC_R_SQUARED 0.631, read-out: LUCIFERASE INFECTION ASSAY - IC50): 2.98 µM
21 | Cc1c(S(=O)(=O)c2ccc(Cl)cc2)csc1C(=O)Nc1ccccc1Cl | > 7.74 | IC50 (FFLUC_HILL_SLOPE 0.988, FFLUC_R_SQUARED 0.0286, PBLUC_HILL_SLOPE 1.65, PBLUC_R_SQUARED 0.324, read-out: LUCIFERASE INFECTION ASSAY - IC50): 6.99 µM
22 | O=C(Nc1ccccc1)c1ccc(CN2CCC(O)CC2)cc1 | > 10 | IC50 (FFLUC_HILL_SLOPE 0.964, FFLUC_R_SQUARED 0.857, PBLUC_HILL_SLOPE 0.791, PBLUC_R_SQUARED 0.696, read-out: LUCIFERASE INFECTION ASSAY - IC50): 1.04 µM
23 | Cc1ccc(-n2nc(-c3ccc(OC(F)(F)F)cc3)cc2NC(=O)Nc2ccc(OC(F)(F)F)cc2)cc1C | > 6 | IC50 (FFLUC_HILL_SLOPE 0.93, FFLUC_R_SQUARED 0.122, PBLUC_HILL_SLOPE 17.9, PBLUC_R_SQUARED 0.245, read-out: LUCIFERASE INFECTION ASSAY - IC50): 5.99 µM
24 | O=C(Nc1ccccc1)c1cc(Nc2ccc(O)cc2)ncn1 | > 10.8 | IC50 (FFLUC_HILL_SLOPE 0.974, FFLUC_R_SQUARED 0.921, PBLUC_HILL_SLOPE 1.57, PBLUC_R_SQUARED 0.726, read-out: LUCIFERASE INFECTION ASSAY - IC50): 5.2 µM
25 | O=[N+]([O-])c1cnc(Sc2nnc(SCc3cccc(C(F)(F)F)c3)s2)s1 | > 7.56 | IC50 (FFLUC_HILL_SLOPE 0.915, FFLUC_R_SQUARED 0.422, read-out: LUCIFERASE INFECTION ASSAY - IC50): > 7.56 µM
26 | O=[N+]([O-])c1ccc2c(c1)S(=O)(=O)CC2Sc1cccs1 (stereo not given) | > 10.1 | IC50 (FFLUC_HILL_SLOPE 0.919, FFLUC_R_SQUARED 0.527, PBLUC_HILL_SLOPE 1.82, PBLUC_R_SQUARED 0.11, read-out: LUCIFERASE INFECTION ASSAY - IC50): > 10.1 µM
27 | CN1CCN(C(c2ccccn2)c2c(-c3ccccc3)n(O)c3ccccc23)CC1 (stereo not given) | > 10 | IC50 (FFLUC_HILL_SLOPE 1.05, FFLUC_R_SQUARED 0.622, read-out: LUCIFERASE INFECTION ASSAY - IC50): > 10 µM
28 | COc1ccnc(Nc2ccc3c(c2)nc2n3CCCCC2)n1 | 2.84 | IC50 (FFLUC_HILL_SLOPE 0.925, FFLUC_R_SQUARED 0.902, HEPG2TOX_HILL_SLOPE 18.6, HEPG2TOX_R_SQUARED 0.895, PBLUC_HILL_SLOPE 0.753, PBLUC_R_SQUARED 0.781, read-out: LUCIFERASE INFECTION ASSAY - IC50): 0.154 µM
29 | Cc1ccc(-c2nnc(SCC(=O)c3c(N)n(C)c(=O)n(C)c3=O)nc2-c2ccc(C)cc2)cc1 | > 10 | IC50 (FFLUC_HILL_SLOPE 1.03, FFLUC_R_SQUARED 0.511, read-out: LUCIFERASE INFECTION ASSAY - IC50): > 10 µM
30 | Cc1cccc2nc(C(=O)Nc3ccc4c(c3)nc3n4CCCCC3)cn12 | > 10 | IC50 (FFLUC_HILL_SLOPE 1.04, FFLUC_R_SQUARED 0.903, PBLUC_HILL_SLOPE 0.368, PBLUC_R_SQUARED 0.555, read-out: LUCIFERASE INFECTION ASSAY - IC50): 0.159 µM
